# Columns and labels:
# Type in all cases: in vivo
# Echinochloa crus-galli = assay: Paddy herbicidal activity test; conditions: irrigated pot, treated at 3.5 leaf stage of Echinochloa crus-galli, 30 days at 30° C.
# Procedure: (§1) Rice paddy soil was filled into a 1/10000 are pot followed by the addition of suitable amounts of water and chemical fertilizer, kneading, seeding with Echinochloa crus-galli, Monochoria vaginalis and Scirpus juncoides and maintaining in an irrigated state at a water depth of 3 cm. Wettable powders of Target Compound (I) shown in Table 1 prepared in compliance with the preparation examples were diluted with a suitable amount of water, rice plants in the 2.0 leaf stage were transplanted during 3.5 leaf stage of Echinochloa crus-galli, and treated by dropping in chemical in the prescribed amount per 10 are using a pipette. After treating for 30 days in a glass greenhouse at an average atmospheric temperature of 30° C., the herbicidal efficacy thereof was investigated. Evaluation of herbicidal efficacy was carried out by comparing growth inhibition rate (%) with an untreated group, while evaluation of phytotoxicity was carried out by comparing growth inhibition rate (%) with the state of a complete eradication group, and were evaluated at 11 levels indicated below.
# Monochoria vaginalis = assay: Paddy herbicidal activity test; conditions: irrigated pot, treated at 3.5 leaf stage of Echinochloa crus-galli, 30 days at 30° C.
# Procedure: as §1
# Scirpus juncoides = assay: Paddy herbicidal activity test; conditions: irrigated pot, treated at 3.5 leaf stage of Echinochloa crus-galli, 30 days at 30° C.
# Procedure: as §1
# Oryza sativa = assay: Paddy herbicidal activity test, phytotoxicity to transplanted rice; conditions: rice transplanted at 2.0 leaf stage, 30 days at 30° C.
# Procedure: as §1
# Amaranthus retroflexus [1] = assay: Farming soil treatment test; conditions: soil surface spray prior to weed growth, 30 days at 30° C.
# Procedure: (§2) Field soil was filled into a 1/6000 are pot followed by seeding with Digitaria ciliaris, Chenopodium album and Amaranthus retroflexus and covering with soil. Wettable powders of compounds of formula (I) shown in Table 1 prepared in compliance with the preparation examples were diluted with water to the prescribed amount of chemical and uniformly sprayed onto each soil surface layer using 100 liters of sprayed water per 10 are prior to weed growth following seeding. After treating for 30 days in a glass greenhouse at an average atmospheric temperature of 30° C., the herbicidal efficacy thereof was investigated. Evaluation of herbicidal efficacy was carried out in the same manner as the above-mentioned Test Example 1.
# Chenopodium album [2] = assay: Farming soil treatment test; conditions: soil surface spray prior to weed growth, 30 days at 30° C.
# Procedure: as §2
# Digitaria ciliaris [3] = assay: Farming soil treatment test; conditions: soil surface spray prior to weed growth, 30 days at 30° C.
# Procedure: as §2
# Amaranthus retroflexus [4] = assay: Weed foliar treatment test (Test 3, 1.0 to 2.0 leaf stage); conditions: foliar spray at 1.0 to 2.0 leaf stage of Digitaria ciliaris, 3 weeks at 25° C.
# Procedure: (§3) Soil was filled into a 1/6000 are pot followed by seeding with Digitaria ciliaris, Chenopodium album and Amaranthus retroflexus, covering with soil, and cultivating in a glass greenhouse at an average atmospheric temperature of 25° C. Wettable powders of Target Compound (I) shown in Table 1 prepared in compliance with the preparation examples were diluted with water to the prescribed amount of chemical and uniformly sprayed onto the weeds using 150 liters of sprayed water per 10 are when Digitaria ciliaris had grown to the 1.0 to 2.0 leaf stage. After treating for 3 weeks in a glass greenhouse at an average atmospheric temperature of 25° C., the herbicidal efficacy thereof was investigated. Evaluation of herbicidal efficacy was carried out in the same manner as the above-mentioned Test Example 1.
# Chenopodium album [5] = assay: as above; conditions: foliar spray at 1.0 to 2.0 leaf stage of Digitaria ciliaris, 3 weeks at 25° C.
# Procedure: as §3
# Digitaria ciliaris [6] = assay: as above; conditions: foliar spray at 1.0 to 2.0 leaf stage of Digitaria ciliaris, 3 weeks at 25° C.
# Procedure: as §3
# Digitaria ciliaris [7] = assay: Weed foliar treatment test (Test 4, 4.0 to 5.0 leaf stage); conditions: 10 g a.i./10 a; foliar spray at 4.0 to 5.0 leaf stage of Digitaria ciliaris (plant height 10 cm to 15 cm); 20 days at 25° C.
# Procedure: (§4) Field soil was filled into a 1/4500 are pot followed by seeding with Digitaria ciliaris and Galinsoga parviflora, covering with soil and cultivating in a glass greenhouse at an average atmospheric temperature of 25° C. Wettable powders of Target Compound (I) shown in Table 1 prepared in compliance with the preparation examples were diluted with water to the prescribed amount of chemical and uniformly sprayed onto the weeds using 100 liters of sprayed water per 10 are when Digitaria ciliaris had grown to the 4.0 to 5.0 leaf stage (plant height: 10 cm to 15 cm). After treating for 20 days in a glass greenhouse at an average atmospheric temperature of 25° C., the herbicidal efficacy thereof was investigated. Evaluation of herbicidal efficacy was carried out in the same manner as the above-mentioned Test Example 1.
# Galinsoga parviflora = assay: as above; conditions: 10 g a.i./10 a; foliar spray at 4.0 to 5.0 leaf stage of Digitaria ciliaris (plant height 10 cm to 15 cm); 20 days at 25° C.
# Procedure: as §4
Structure (SMILES),"herbicidal efficacy, Echinochloa crus-galli (Echinochloa crus-galli; 1 g a.i./10 a)","herbicidal efficacy, Echinochloa crus-galli (Echinochloa crus-galli; 5 g a.i./10 a)","herbicidal efficacy, Monochoria vaginalis (Monochoria vaginalis; 1 g a.i./10 a)","herbicidal efficacy, Monochoria vaginalis (Monochoria vaginalis; 5 g a.i./10 a)","herbicidal efficacy, Scirpus juncoides (Scirpus juncoides; 1 g a.i./10 a)","herbicidal efficacy, Scirpus juncoides (Scirpus juncoides; 5 g a.i./10 a)","phytotoxicity, Oryza sativa (Oryza sativa; 1 g a.i./10 a)","phytotoxicity, Oryza sativa (Oryza sativa; 5 g a.i./10 a)","herbicidal efficacy, Amaranthus retroflexus (Amaranthus retroflexus [1]; 5 g a.i./10 a)","herbicidal efficacy, Amaranthus retroflexus (Amaranthus retroflexus [1]; 10 g a.i./10 a)","herbicidal efficacy, Chenopodium album (Chenopodium album [2]; 5 g a.i./10 a)","herbicidal efficacy, Chenopodium album (Chenopodium album [2]; 10 g a.i./10 a)","herbicidal efficacy, Digitaria ciliaris (Digitaria ciliaris [3]; 5 g a.i./10 a)","herbicidal efficacy, Digitaria ciliaris (Digitaria ciliaris [3]; 10 g a.i./10 a)","herbicidal efficacy, Amaranthus retroflexus (Amaranthus retroflexus [4]; 5 g a.i./10 a)","herbicidal efficacy, Amaranthus retroflexus (Amaranthus retroflexus [4]; 10 g a.i./10 a)","herbicidal efficacy, Chenopodium album (Chenopodium album [5]; 5 g a.i./10 a)","herbicidal efficacy, Chenopodium album (Chenopodium album [5]; 10 g a.i./10 a)","herbicidal efficacy, Digitaria ciliaris (Digitaria ciliaris [7])","herbicidal efficacy, Galinsoga parviflora (Galinsoga parviflora)",further results
N#Cc1cnn(-c2nn3c(c2Cl)CCCC3)c1NC(=O)Cc1ccccc1 [Compound 3],9 (9: 90% to less than 100%),10 (10: 100%),9 (9: 90% to less than 100%),10 (10: 100%),9 (9: 90% to less than 100%),10 (10: 100%),0 (0 (exponent): 0% to less than 10% (growth inhibition rate)),1 (1: 10% to less than 20%),9 (9: 90% to less than 100%),9 (9: 90% to less than 100%),9 (9: 90% to less than 100%),10 (10: 100%),9 (9: 90% to less than 100%),9 (9: 90% to less than 100%),9 (9: 90% to less than 100%),10 (10: 100%),10 (10: 100%),10 (10: 100%),10 (10: 100%),10 (10: 100%),"herbicidal efficacy, Digitaria ciliaris (Digitaria ciliaris [6]; 5 g a.i./10 a): 10 (10: 100%); herbicidal efficacy, Digitaria ciliaris (Digitaria ciliaris [6]; 10 g a.i./10 a): 10 (10: 100%)"
N#Cc1cnn(-c2nn3c(c2Cl)CCC3)c1NC(=O)Cc1ccccc1 [Compound 2],–,–,–,–,–,–,–,–,–,–,–,–,–,–,–,–,–,–,10 (10: 100%),10 (10: 100%),–
"N#Cc1cnn(-c2nn3c(c2Cl)CCCC3)c1NC(=O)c1ccccc1 [Control agent 4.192, reference compound]",4 (4: 40% to less than 50%),4 (4: 40% to less than 50%),1 (1: 10% to less than 20%),2 (2: 20% to less than 30%),3 (3: 30% to less than 40%),4 (4: 40% to less than 50%),1 (1: 10% to less than 20%),1 (1: 10% to less than 20%),0 (0 (exponent): 0% to less than 10% (growth inhibition rate)),1 (1: 10% to less than 20%),2 (2: 20% to less than 30%),3 (3: 30% to less than 40%),0 (0 (exponent): 0% to less than 10% (growth inhibition rate)),2 (2: 20% to less than 30%),3 (3: 30% to less than 40%),4 (4: 40% to less than 50%),4 (4: 40% to less than 50%),5 (5: 50% to less than 60%),0 (0 (exponent): 0% to less than 10% (growth inhibition rate)),2 (2: 20% to less than 30%),"herbicidal efficacy, Digitaria ciliaris (Digitaria ciliaris [6]; 5 g a.i./10 a): 1 (1: 10% to less than 20%); herbicidal efficacy, Digitaria ciliaris (Digitaria ciliaris [6]; 10 g a.i./10 a): 2 (2: 20% to less than 30%)"
Cc1ccccc1CC(=O)Nc1c(C#N)cnn1-c1nn2c(c1Cl)CCCC2 [Compound 6],10 (10: 100%),10 (10: 100%),10 (10: 100%),10 (10: 100%),10 (10: 100%),10 (10: 100%),1 (1: 10% to less than 20%),1 (1: 10% to less than 20%),9 (9: 90% to less than 100%),9 (9: 90% to less than 100%),9 (9: 90% to less than 100%),10 (10: 100%),9 (9: 90% to less than 100%),9 (9: 90% to less than 100%),10 (10: 100%),10 (10: 100%),10 (10: 100%),10 (10: 100%),10 (10: 100%),10 (10: 100%),"herbicidal efficacy, Digitaria ciliaris (Digitaria ciliaris [6]; 5 g a.i./10 a): 10 (10: 100%); herbicidal efficacy, Digitaria ciliaris (Digitaria ciliaris [6]; 10 g a.i./10 a): 10 (10: 100%)"
N#Cc1cnn(-c2nn3c(c2Cl)CCCC3)c1NC(=O)Cc1ccc(C(F)(F)F)cc1 [Compound 17],–,–,–,–,–,–,–,–,–,–,–,–,–,–,–,–,–,–,10 (10: 100%),10 (10: 100%),–
Cc1ccc(CC(=O)Nc2c(C#N)cnn2-c2nn3c(c2Cl)CCCC3)cc1 [Compound 13],–,–,–,–,–,–,–,–,–,–,–,–,–,–,–,–,–,–,10 (10: 100%),10 (10: 100%),–
N#Cc1cnn(-c2nn3c(c2Cl)CCCC3)c1NC(=O)Cc1ccccc1Cl [Compound 8],–,–,–,–,–,–,–,–,–,–,–,–,–,–,–,–,–,–,10 (10: 100%),10 (10: 100%),–
